Reference: patent US5587479A, “Basic derivatives of glutamic acid and aspartic acid as gastrin or cholecystokinin antagonists” (priority 1992, dated 1996)
pIC50: −log10 of the molar value. ≈ marks a conversion by molar mass, not a printed value. Where two headings read alike, the source gives them in different places.

What was measured:
[1] = test system: acid secretion induced by pentagastrin; experiment: Activity against gastric secretion stimulated with pentagastrin in the anaesthetized rat; format: in vivo
Description: The investigation of the activity against gastric secretion performed by the compounds of the invention by means of an antigastrin mechanism was carried out in vivo in anaesthetized rats with the use of male animals weighing about 200 g. Gastric secretion was stimulated with pentagastrin and the method of K. S. Lai [Gut 5, (1964), 327-341] was used, slightly modified.
After tracheotomy, the oesophagus and duodenum were cannulated. Perfusion was carried out with a tepid solution (37° C.) of 0.25 mM NaOH which was passed through the stomach by means of a peristaltic pump at a constant flow rate of 1 ml/minute. After stabilization for 20 minutes, the stimulant, dissolved in a physiological solution, was perfused for 120 minutes at a dose of 30 mcg/kg/h in a volume of 0.95 ml/hour. After perfusion for 60 minutes (the basal simulation), the product under test was administered intravenously (I.V.) as a bolus and the perfusion of the stimulant was continued for a further 60 minutes. The acid secretion was recorded continuously as a function of time.
The activity of the product was evaluated as the percentage reduction in the secreted acidity after the administration of the product compared with the basal acidity measured during the first 60 minutes of collection in the presence of pentagastrin alone.

[2] = molecular target: T1, cholecystokinin receptors of the pancreatic cells of the rat (CCK-A) (Rattus norvegicus, UniProt P30551); experiment: Inhibition of the binding of [125-I]-[Bolton-Hunter]-CCK-8 to rat pancreatic cells (anti-CCK-A); details: rat pancreatic cells
T1 construct: The pancreatic cells of the rat were prepared as described by Makovec et al; from tissue; host or cells: rat pancreatic cells
T1 sequence (P30551 1-444): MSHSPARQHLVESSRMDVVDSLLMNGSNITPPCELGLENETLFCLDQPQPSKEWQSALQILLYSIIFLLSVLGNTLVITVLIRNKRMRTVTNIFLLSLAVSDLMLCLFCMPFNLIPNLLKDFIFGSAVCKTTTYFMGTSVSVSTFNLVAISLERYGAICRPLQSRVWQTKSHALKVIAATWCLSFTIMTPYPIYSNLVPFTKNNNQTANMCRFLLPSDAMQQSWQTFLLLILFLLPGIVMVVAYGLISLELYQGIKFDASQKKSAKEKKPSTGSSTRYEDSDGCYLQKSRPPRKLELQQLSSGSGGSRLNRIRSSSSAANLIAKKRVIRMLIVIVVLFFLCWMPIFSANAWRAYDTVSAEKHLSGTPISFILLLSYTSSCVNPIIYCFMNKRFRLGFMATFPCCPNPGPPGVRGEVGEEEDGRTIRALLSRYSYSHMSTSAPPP
Description: The pancreatic cells of the rat were prepared as described by Makovec et al. (reference cited) so as to produce about 5×10^6 cells/mi. The cells were then incubated together with the radioactive tracer and the compounds under test for 30 minutes at 37° C.
After the supernatant liquid had been discarded, the radioactivity associated with the pellet was determined with a gamma counter (80% efficiency).

[3] = molecular target: T2, central CCK-B receptors (guinea pig cortical membrane) (Cavia porcellus, UniProt H0VZC5); experiment: Inhibition of binding of (3-H)[N-methyl-N-leucine]CCK-8 to guinea pig cortical membranes (anti-CCK-B)
T2 construct: Cerebral cortices of white male guinea pigs were therefore used; from tissue; host or cells: guinea pig cerebral cortex membranes
T2 sequence (H0VZC5 1-426): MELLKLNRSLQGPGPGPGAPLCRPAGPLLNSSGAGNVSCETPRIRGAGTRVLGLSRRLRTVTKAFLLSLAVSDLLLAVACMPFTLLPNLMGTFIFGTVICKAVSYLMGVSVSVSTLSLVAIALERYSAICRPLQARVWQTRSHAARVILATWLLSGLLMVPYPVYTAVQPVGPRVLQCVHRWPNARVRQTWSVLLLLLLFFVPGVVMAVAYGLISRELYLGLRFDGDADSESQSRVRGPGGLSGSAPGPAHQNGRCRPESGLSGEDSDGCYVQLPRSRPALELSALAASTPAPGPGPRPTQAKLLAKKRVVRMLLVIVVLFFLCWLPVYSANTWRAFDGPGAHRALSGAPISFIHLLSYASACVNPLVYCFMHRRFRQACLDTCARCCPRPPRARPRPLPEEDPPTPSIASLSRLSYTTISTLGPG
Description: Cerebral cortices of white male guinea pigs were therefore used, according to the method mentioned above, so as to obtain a membrane content/ml corresponding to about 300 mcg of proteins/mi. The membranes were incubated together with the radioactive tracer and the compounds under test for 150 minutes at 25° C. After the supernatant liquid had been discarded, the radioactivity associated with the pellet was determined with a liquid scintillator.

mouse = experiment: Anxiolytic activity in the mouse, Black and White Box test; format: in vivo; details: for TOTAL MOV.: five minutes
Description: In order to confirm the hypothesis that the potent activity of some of the compounds of the invention against central CCK-B may be correlated with a possible anxiolytic activity, this potential activity was evaluated in the mouse with the use of the "Black and White Box test". This experimental model, which was carried out according to Costall et al. [Pharm. Biochem. Behav. 32 (1989), 777-785] used a box with dimensions of 45×21×21 (h) cm. divided into two compartments which communicated with each other by means of a 13×5 cm hole. The smaller compartment (1/3 of the total area) had black walls, whereas the larger had transparent walls and was illuminated by a lamp which was placed 20 cm above the box and supplied light at 20 W. Under the floor was an activity meter which registered the movements performed by the animal in the individual compartments. The experiment was started by placing the animal in the centre of the illuminated box; as well at its movements, the time which the animal spent in the dark and in the light and the number of times it moved between the 2 compartments were recorded for five minutes. In general, a control animal tended preferably to stay in the dark compartment where it felt better protected from an unusual enviromental situation which put it in a state of anxiety. In this experimental model ( see the reference cited above), a compound having anxiolytic activity decreased the % of movements into the dark in comparison with the total movements, increased the movements between the two light-dark compartments, and increased the % of the total time time spent in the light. The results obtained are given in Table 5 below in which the activities obtained with the compound 1 (the rectus series ) and its enantiomer 2 (sinister) tested in comparison with diazepam and the CCK-B antagonist L365-260.

guinea-pig ureters = experiment: Antispastic activity in vitro: spontaneous motility of guinea-pig ureters; details: Cavia porcellus, five minutes contact, 37° C.
Description: The isotonic contractions were detected by means of a force transducer and recorded. […] A given concentration of the product under test was then introduced into the bath and left in contact with the prepared specimen for five minutes, after which the ureter was washed until its own spontaneous activity was re-established.

CCK-B receptors = details: guinea-pig; cited from earlier work

In the case of `CN1CCN(C(=O)CC[C@@H](NC(=O)c2cc(Cl)cc(Cl)c2)C(=O)N2CCC3(CCCC3)CC2)CC1` [Compound 1], the ED50 ([1]; iv, anaesthetized rat, pentagastrin 30 mcg/kg/h, I.V. bolus, read-out: Antagonistic activity (ID50) towards acid secretion induced by pentagastrin) was 9 mg/kg, the “activity times higher than that of its S enantiomer, compound 2” value ([1]; rat, pentagastrin-induced acid secretion) was “about three” and the “times more active than CR 2194, calculated on a molar basis” value ([1]; rat, pentagastrin-induced acid secretion, molar basis) was “about 1.5 times”. The “times more active than CR 2194” value ([1]; rat, pentagastrin-induced acid secretion, weight basis) was “about 1.2 times”, the “activity relative to its acidic parent compound CR 2194 (CCK-A binding)” value [2] was “about twice” and the pIC50 ([3]; IC50, inhibition of binding of (3-H)[N-methyl-N-leucine]CCK-8 to the guinea pig cortical membrane, 150 minutes at 25° C.) was 6.15. The “times less active than pentagastrin (CCK-B binding)” value ([3]; guinea-pig cortical membranes) was “about 200 times”, the “times more potent than the CCK-A antagonist R-lorglumide (CCK-B binding)” value ([3]; guinea-pig cortical membranes) was “about 10 times” and the “times more potent than the gastrin antagonist CR 2194 (CCK-B binding)” value ([3]; guinea-pig cortical membranes) was “about 3 times”. The “LIGHT TIME (%) TOTAL TIME” value (mouse; 0.01 mg/kg IP) was 32.3%, the “LIGHT TIME (%) TOTAL TIME: % EFF.VS CONTROL” value (from here on “LIGHT TIME … % EFF.VS CONTROL”) (mouse; 0.01 mg/kg IP) was 17% and the “LIGHT-DARK MOVEMENTS” value (mouse; 0.01 mg/kg IP) was 13.2. The “LIGHT-DARK MOVEMENTS: % EFF. VS CONTROL” value (mouse; 0.01 mg/kg IP) was 3%, the “MOV. DARK (%) TOTAL MOV.” value (mouse; 0.01 mg/kg IP) was 50% and the “MOV. DARK (%) TOTAL MOV.: % EFF. VS CONTROL” value (from here on “MOV. DARK … % EFF. VS CONTROL”) (mouse; 0.01 mg/kg IP) was 0%. The “TOTAL MOV.” value (mouse; 0.01 mg/kg IP) was 478, the “LIGHT TIME (%) TOTAL TIME” value (mouse; 0.1 mg/kg IP) was 35.4% and the “LIGHT TIME … % EFF.VS CONTROL” value (mouse; 0.1 mg/kg IP) was 28%. For the same compound, the “LIGHT-DARK MOVEMENTS” value (mouse; 0.1 mg/kg IP) was 15.0, the “LIGHT-DARK MOVEMENTS: % EFF. VS CONTROL” value (mouse; 0.1 mg/kg IP) was 17% and the “MOV. DARK (%) TOTAL MOV.” value (mouse; 0.1 mg/kg IP) was 47%. The “MOV. DARK … % EFF. VS CONTROL” value (mouse; 0.1 mg/kg IP) was -5%, the “TOTAL MOV.” value (mouse; 0.1 mg/kg IP) was 461 and the “LIGHT TIME (%) TOTAL TIME” value (mouse; 1 mg/kg IP) was 30.5%. For the same compound, the “LIGHT TIME … % EFF.VS CONTROL” value (mouse; 1 mg/kg IP) was 10%, the “LIGHT-DARK MOVEMENTS” value (mouse; 1 mg/kg IP) was 12.9 and the “LIGHT-DARK MOVEMENTS: % EFF. VS CONTROL” value (mouse; 1 mg/kg IP) was 0%. For the same compound, the “MOV. DARK (%) TOTAL MOV.” value (mouse; 1 mg/kg IP) was 45%, the “MOV. DARK … % EFF. VS CONTROL” value (mouse; 1 mg/kg IP) was -9% and the “TOTAL MOV.” value (mouse; 1 mg/kg IP) was 471. For the same compound, the “anxiolytic activity in the Black and White Box test (in words)” value (mouse; IP) was “active for all the parameters tested”, the “dose at which the compound is most active” value (mouse; bell-shaped curve) was 0.1 mg/kg (I.P.) and the IC50 (guinea-pig ureters; force of the contractions, read-out: IC50 (force), inhibition of the spontaneous motility of guinea-pig ureters in vitro) was 23 µg/mL (≈ 43.9 µM). For the same compound, the IC50 (guinea-pig ureters; frequency of the contractions, read-out: IC50 (frequency), inhibition of the spontaneous motility of guinea-pig ureters in vitro) was 29 µg/mL (≈ 55.4 µM).
For “non-sulphated [3-H][N-methyl-N-leucine]CCK-8”, the “affinity for the receptors of the cortex (CCK-B), times greater than for those of the pancreas (CCK-A)” value (CCK-B receptors) is listed as “about 4000 times”.
